According to PubChem BioAssay AID330 (DTP/NCI, 2004):
Several values for one entry are separate records, joined by “and”; a condition that tells them apart may be missing. Equal entries are not always repeated. Inconclusive results and toxic doses are left out. Rule for the calls: active = survival T/C of 150% or more; inactive = T/C below 125% in these data. Peptide text beside a SMILES is read from it.

Test system: P388 leukemia ip, CD2F1 mice, survival T/C
Assay: NCI In Vivo Anticancer Drug Screen. Data for tumor model P388 Leukemia (intraperitoneal) in CD2F1 (CDF1) mice
Conditions: endpoint: median survival time, higher = longer survival
In short: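 Mice carrying the transplanted tumor received test compound or vehicle. Survival was recorded in each group, and the value is the treated-group measurement divided by that of the vehicle-treated control group.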

[1] = dose: 50.0 mg/kg/injection, schedule: Q01DX009 (ip), vehicle: Klucel (hydroxypropylcellulose) (HPC)
[2] = dose: 100.0 mg/kg/injection, schedule: Q01DX009 (ip), vehicle: Klucel (hydroxypropylcellulose) (HPC)
[3] = dose: 200.0 mg/kg/injection, schedule: Q01DX009 (ip), vehicle: Klucel (hydroxypropylcellulose) (HPC)
[4] = dose: 100.0 mg/kg/injection, schedule: Q01DX001 (ip), vehicle: saline
[5] = dose: 200.0 mg/kg/injection, schedule: Q01DX001 (ip), vehicle: saline
[6] = dose: 400.0 mg/kg/injection, schedule: Q01DX001 (ip), vehicle: saline
[7] = dose: 50.0 mg/kg/injection, schedule: Q01DX005 (ip), vehicle: saline with Tween-80
[8] = dose: 100.0 mg/kg/injection, schedule: Q01DX005 (ip), vehicle: saline with Tween-80
[9] = dose: 200.0 mg/kg/injection, schedule: Q01DX005 (ip), vehicle: saline with Tween-80
[10] = dose: 60.0 mg/kg/injection, schedule: Q01DX005 (ip), vehicle: saline with Tween-80
[11] = dose: 120.0 mg/kg/injection, schedule: Q01DX005 (ip), vehicle: saline with Tween-80
[12] = dose: 240.0 mg/kg/injection, schedule: Q01DX005 (ip), vehicle: saline with Tween-80
[13] = dose: 50.0 mg/kg/injection, schedule: Q01DX009 (ip), vehicle: saline + Tween-80 + alcohol
[14] = dose: 100.0 mg/kg/injection, schedule: Q01DX009 (ip), vehicle: saline + Tween-80 + alcohol
[15] = dose: 12.5 mg/kg/injection, schedule: Q01DX009 (ip), vehicle: saline
[16] = dose: 50.0 mg/kg/injection, schedule: Q01DX009 (ip), vehicle: saline with Tween-80
[17] = dose: 50.0 mg/kg/injection, schedule: Q01DX009 (ip), vehicle: saline
[18] = dose: 50.0 mg/kg/injection, schedule: Q01DX005 (ip), vehicle: saline
[19] = dose: 100.0 mg/kg/injection, schedule: Q01DX005 (ip), vehicle: saline
[20] = dose: 200.0 mg/kg/injection, schedule: Q01DX005 (ip), vehicle: saline

Measured: T/C

COc1cccc2c1C(=O)c1c(O)c3c(c(O)c1C2=O)C[C@@](O)(/C(C)=N\NC(N)=O)C[C@@H]3OC1CC(N)C(O)C(C)O1 (stereo not given in full)
inactive: dose: 1.56 mg/kg/injection, schedule: Q01DX009 (ip), vehicle: saline 95 % of control

Cc1cc(C)c(S(=O)(=O)Sc2nnnn2-c2ccccc2)c(C)c1
inactive: [1] 100 % of control | [2] 105 % of control | [3] 95 % of control

COc1cccc2c1C(=O)c1c(O)c3c(c(O)c1C2=O)C[C@@](O)(C(C)=O)[C@@H](OC)[C@@H]3OC1CC(N)C(O)C(C)O1 (stereo not given in full)
inactive: dose: 0.6 mg/kg/injection, schedule: Q04DX003 (ip), vehicle: water 103 % of control | dose: 1.2 mg/kg/injection, schedule: Q04DX003 (ip), vehicle: water 122 % of control | dose: 2.4 mg/kg/injection, schedule: Q04DX003 (ip), vehicle: water 108 % of control | dose: 2.5 mg/kg/injection, schedule: Q04DX003 (ip), vehicle: water 108 % of control | dose: 4.8 mg/kg/injection, schedule: Q04DX003 (ip), vehicle: water 123 % of control | dose: 5.0 mg/kg/injection, schedule: Q04DX003 (ip), vehicle: water 108 % of control

Cc1cc(C)cc(C(O)(CBr)CC(C)(Cl)Cl)c1 (stereo not given)
inactive: dose: 50.0 mg/kg/injection, schedule: Q01DX009 (ip), vehicle: saline + alcohol 114 % of control | dose: 100.0 mg/kg/injection, schedule: Q01DX009 (ip), vehicle: saline + alcohol 119 % of control | dose: 200.0 mg/kg/injection, schedule: Q01DX009 (ip), vehicle: saline + alcohol 120 % of control

[O-]c1n[n+](-c2ccccc2)ns1
inactive: dose: 3.13 mg/kg/injection, schedule: Q01DX009 (ip), vehicle: distilled water + Tween-80 99 % of control and 106 % of control | dose: 6.25 mg/kg/injection, schedule: Q01DX009 (ip), vehicle: distilled water + Tween-80 99 % of control and 101 % of control and 114 % of control | dose: 12.5 mg/kg/injection, schedule: Q01DX009 (ip), vehicle: distilled water + Tween-80 100 % of control and 105 % of control and 124 % of control | dose: 25.0 mg/kg/injection, schedule: Q01DX009 (ip), vehicle: distilled water + Tween-80 99 % of control and 115 % of control and 92 % of control

COc1ccc(S(=O)(=O)c2cnc(N)nc2N)cc1
inactive: [4] 97 % of control | [5] 93 % of control | [6] 90 % of control

CC(C)CC(NC(=O)OCc1ccccc1)C(=O)NC(Cc1c[nH]c2ccccc12)C(=O)O (stereo not given)
inactive: [7] 100 % of control | [8] 103 % of control | [9] 102 % of control

N=C(N)n1ncc2c1CCCC2=O
inactive: [10] 100 % of control | [11] 105 % of control | [12] 96 % of control

CN(C)C(=S)c1ccccc1NS(=O)(=O)c1ccccc1
inactive: dose: 100.0 mg/kg/injection, schedule: Q04DX003 (ip), vehicle: saline 106 % of control | dose: 200.0 mg/kg/injection, schedule: Q04DX003 (ip), vehicle: saline 100 % of control | dose: 400.0 mg/kg/injection, schedule: Q04DX003 (ip), vehicle: saline 97 % of control

O=C(OCCCCI)c1ccccc1
inactive: dose: 25.0 mg/kg/injection, schedule: Q01DX009 (ip), vehicle: saline + Tween-80 + alcohol 105 % of control | [13] 103 % of control | [14] 104 % of control | dose: 2000.0 mg/kg/injection, schedule: Q01DX009 (ip), vehicle: saline + Tween-80 + alcohol 114 % of control

CCC1CN2CCC3(C(=O)Nc4ccccc43)C2CC1/C(=C/OC)C(=O)OC (stereo not given)
inactive: dose: 6.25 mg/kg/injection, schedule: Q01DX009 (ip), vehicle: saline 102 % of control | [15] 100 % of control | dose: 25.0 mg/kg/injection, schedule: Q01DX009 (ip), vehicle: saline 102 % of control | [16] 100 % of control | [17] 103 % of control

COc1ccc2c(C)cc(=O)sc2c1
inactive: [13] 101 % of control | [14] 104 % of control | dose: 200.0 mg/kg/injection, schedule: Q01DX009 (ip), vehicle: saline + Tween-80 + alcohol 100 % of control

N#Cc1c(-c2ccccc2)c(-c2ccccc2)n[nH]c1=O
inactive: dose: 25.0 mg/kg/injection, schedule: Q04DX002 (ip), vehicle: distilled water + Tween-80 99 % of control | dose: 50.0 mg/kg/injection, schedule: Q04DX002 (ip), vehicle: distilled water + Tween-80 100 % of control | [4] 100 % of control | dose: 100.0 mg/kg/injection, schedule: Q04DX002 (ip), vehicle: distilled water + Tween-80 98 % of control | [5] 96 % of control | dose: 200.0 mg/kg/injection, schedule: Q04DX002 (ip), vehicle: distilled water + Tween-80 98 % of control | [6] 100 % of control

COC(=O)CCC(C)C1CCC2C3=CC(=O)C4CC(OC(C)=O)CCC4(C)C3CC(OC(C)=O)C21C (stereo not given)
inactive: [16] 109 % of control | dose: 100.0 mg/kg/injection, schedule: Q01DX009 (ip), vehicle: saline with Tween-80 94 % of control | dose: 200.0 mg/kg/injection, schedule: Q01DX009 (ip), vehicle: saline with Tween-80 87 % of control

NC(CCC(=O)O)C(=O)NC(Cc1c[nH]c2ccccc12)C(=O)NC(CCC(=O)O)C(=O)O (stereo not drawn) (H-Glu-Trp-Glu-OH; configuration not given here)
inactive: [18] 93 % of control | [19] 104 % of control | [20] 105 % of control

CCCCCCCCCCCCCCCCCCOC(=O)C(N)Cc1ccc(O)cc1 (stereo not given)
inactive: dose: 60.0 mg/kg/injection, schedule: Q01DX005 (ip), vehicle: Klucel (hydroxypropylcellulose) (HPC) 106 % of control | dose: 120.0 mg/kg/injection, schedule: Q01DX005 (ip), vehicle: Klucel (hydroxypropylcellulose) (HPC) 101 % of control | dose: 240.0 mg/kg/injection, schedule: Q01DX005 (ip), vehicle: Klucel (hydroxypropylcellulose) (HPC) 105 % of control

COc1ccc2nc(NC(=O)Nc3c(Cl)cccc3Cl)sc2c1
inactive: [10] 95 % of control | [11] 101 % of control | [12] 88 % of control

Fc1ccc(NC(=S)S)cc1
inactive: dose: 6.25 mg/kg/injection, schedule: Q01DX009 (ip), vehicle: saline with Tween-80 104 % of control | dose: 6.25 mg/kg/injection, schedule: Q04DX003 (ip), vehicle: saline 100 % of control | dose: 12.5 mg/kg/injection, schedule: Q01DX009 (ip), vehicle: saline with Tween-80 104 % of control | dose: 12.5 mg/kg/injection, schedule: Q04DX003 (ip), vehicle: saline 115 % of control | dose: 25.0 mg/kg/injection, schedule: Q01DX009 (ip), vehicle: saline with Tween-80 104 % of control | dose: 25.0 mg/kg/injection, schedule: Q04DX003 (ip), vehicle: saline 100 % of control

COc1ccc2c(c1)C1(C)c3cc(OC)ccc3OC1(C)O2 (stereo not given)
inactive: dose: 50.0 mg/kg/injection, schedule: Q01DX009 (ip), vehicle: other 103 % of control | dose: 100.0 mg/kg/injection, schedule: Q01DX009 (ip), vehicle: other 95 % of control | dose: 200.0 mg/kg/injection, schedule: Q01DX009 (ip), vehicle: other 103 % of control

NSc1nc2ccccc2s1
inactive: dose: 100.0 mg/kg/injection, schedule: Q04DX003 (ip), vehicle: saline with Tween-80 100 % of control | dose: 200.0 mg/kg/injection, schedule: Q04DX003 (ip), vehicle: saline with Tween-80 100 % of control

O=P(C(=S)Nc1ccc(S(=O)(=O)N2CCCCC2)cc1)(c1ccccc1)c1ccccc1
inactive: [1] 97 % of control | [2] 95 % of control | [3] 98 % of control

c1ccc(CSC2=NCCN2)cc1
inactive: [15] 93 % of control | [17] 91 % of control

NC(=O)N1CCC2c3ccccc3NC(=S)N21 (stereo not given)
inactive: dose: 100.0 mg/kg/injection, schedule: Q01DX001 (ip), vehicle: saline with Tween-80 102 % of control | dose: 200.0 mg/kg/injection, schedule: Q01DX001 (ip), vehicle: saline with Tween-80 99 % of control | dose: 400.0 mg/kg/injection, schedule: Q01DX001 (ip), vehicle: saline with Tween-80 99 % of control

C1CCc2nc3c(nc2C1)CCCC3
inactive: [7] 101 % of control | [8] 101 % of control | [9] 92 % of control

CCOC(=O)N1C2CCC1C(C)C(=O)C2 (stereo not given)
inactive: [18] 96 % of control | [19] 96 % of control and 104 % of control | [20] 94 % of control
